In ChEMBL document CHEMBL1201862, “PubChem BioAssay data set” (2004):
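Test compounds were applied to cells in 96-well plates for 48 hours at 5 doses. GI50 is the concentration that inhibits growth by half.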 Active and inactive are the calls of the source. No stated cut-off is given here; in the data, active = GI50 up to about 1.1 µM and inactive = higher.

What was measured:
Assay in all cases: NCI-60 cell line screen, 48 h
COLO 205 = system: COLO 205
LOX IMVI = system: LOX IMVI
SK-MEL-28 = system: SK-MEL-28
RXF 393 = system: RXF 393
SK-MEL-5 = system: SK-MEL-5
CCRF-CEM = system: CCRF-CEM
786-0 = system: 786-0
U-251 = system: U-251
A549 = system: A549
SN12C = system: SN12C
UO-31 = system: UO-31
OVCAR-4 = system: OVCAR-4
SF-268 = system: SF-268
MOLT-4 = system: MOLT-4
MDA-MB-231 = system: MDA-MB-231
HOP-92 = system: HOP-92
EKVX = system: EKVX
OVCAR-8 = system: OVCAR-8
HOP-62 = system: HOP-62
SNB-75 = system: SNB-75
SK-OV-3 = system: SK-OV-3
MDA-MB-435 = system: MDA-MB-435
TK-10 = system: TK-10
Hs-578T = system: Hs-578T
SK-MEL-2 = system: SK-MEL-2
SNB-19 = system: SNB-19
IGROV-1 = system: IGROV-1
KM12 = system: KM12
HCT-116 = system: HCT-116
MDA-N = system: MDA-N
UACC-257 = system: UACC-257
MCF7 = system: MCF7
HCC 2998 = system: HCC 2998
NCI/ADR-RES = system: NCI/ADR-RES
HT-29 = system: HT-29
NCI-H522 = system: NCI-H522
NCI-H460 = system: NCI-H460
CAKI-1 = system: CAKI-1
UACC-62 = system: UACC-62
DU-145 = system: DU-145
OVCAR-5 = system: OVCAR-5
SF-539 = system: SF-539
PC-3 = system: PC-3
M14 = system: M14
HL-60 = system: HL-60
SF-295 = system: SF-295
NCI-H226 = system: NCI-H226
OVCAR-3 = system: OVCAR-3
ACHN = system: ACHN
SW-620 = system: SW-620
BT-549 = system: BT-549
HCT-15 = system: HCT-15
NCI-H23 = system: NCI-H23

## CCOc1ccc2nc(NC(=O)C(=O)C3C(=O)C(CC4C(=O)c5ccccc5C4=O)C(=O)CC3(C)C)sc2c1 (stereo not drawn)
COLO 205
  GI50: > 100 µM (inactive)
LOX IMVI
  GI50: > 100 µM (inactive)
SK-MEL-28
  GI50: > 100 µM (inactive)
RXF 393
  GI50: > 100 µM (inactive)
SK-MEL-5
  GI50: 96.4 µM (inactive)
CCRF-CEM
  GI50: 30.8 µM (inactive)
786-0
  GI50: > 100 µM (inactive)
U-251
  GI50: > 100 µM (inactive)
A549
  GI50: 87.5 µM (inactive)
SN12C
  GI50: > 100 µM (inactive)
UO-31
  GI50: 18.9 µM (inactive)
OVCAR-4
  GI50: 56.1 µM (inactive)
SF-268
  GI50: > 100 µM (inactive)
MOLT-4
  GI50: 13.5 µM (inactive)
MDA-MB-231
  GI50: 24 µM (inactive)
HOP-92
  GI50: 34.6 µM (inactive)
EKVX
  GI50: 32.9 µM (inactive)
OVCAR-8
  GI50: > 100 µM (inactive)
HOP-62
  GI50: > 100 µM (inactive)
SNB-75
  GI50: > 100 µM (inactive)
SK-OV-3
  GI50: > 100 µM (inactive)
MDA-MB-435
  GI50: > 100 µM (inactive)
TK-10
  GI50: > 100 µM (inactive)
Hs-578T
  GI50: > 100 µM (inactive)
SK-MEL-2
  GI50: > 100 µM (inactive)
SNB-19
  GI50: > 100 µM (inactive)
IGROV-1
  GI50: 44 µM (inactive)
KM12
  GI50: > 100 µM (inactive)
HCT-116
  GI50: 86.7 µM (inactive)
MDA-N
  GI50: > 100 µM (inactive)
UACC-257
  GI50: > 100 µM (inactive)
MCF7
  GI50: > 100 µM (inactive)
HCC 2998
  GI50: > 100 µM (inactive)
NCI/ADR-RES
  GI50: > 100 µM (inactive)
HT-29
  GI50: > 100 µM (inactive)
NCI-H522
  GI50: > 100 µM (inactive)
NCI-H460
  GI50: > 100 µM (inactive)
CAKI-1
  GI50: 80 µM (inactive)
UACC-62
  GI50: 90.4 µM (inactive)
DU-145
  GI50: > 100 µM (inactive)
OVCAR-5
  GI50: > 100 µM (inactive)
SF-539
  GI50: > 100 µM (inactive)
PC-3
  GI50: 65.8 µM (inactive)
M14
  GI50: > 100 µM (inactive)
HL-60
  GI50: 20.3 µM (inactive)
SF-295
  GI50: > 100 µM (inactive)
NCI-H226
  GI50: > 100 µM (inactive)
OVCAR-3
  GI50: 66.7 µM (inactive)
ACHN
  GI50: > 100 µM (inactive)
SW-620
  GI50: > 100 µM (inactive)
BT-549
  GI50: > 100 µM (inactive)
HCT-15
  GI50: > 100 µM
NCI-H23
  GI50: 95.1 µM (inactive)
